Laboratory results: ChEMBL document CHEMBL4507281, “Data for DCP probe BI-4394” (2021)

Key:
[1] = system: Receptor-type tyrosine-protein kinase FLT3 (Homo sapiens), P36888 [UNDEFINED MUTATION]; conditions: Compound concentration 100.0 nM
[2] = biological target: Ribosomal protein S6 kinase alpha-3 (Homo sapiens) (UniProt P51812); conditions: Compound concentration 100.0 nM
[3] = biological target: Non-receptor tyrosine-protein kinase TNK1 (Homo sapiens) (UniProt Q13470); conditions: Compound concentration 100.0 nM
[4] = biological target: Tyrosine-protein kinase receptor Tie-1 (Homo sapiens) (UniProt P35590); conditions: Compound concentration 100.0 nM
[5] = biological target: Mitogen-activated protein kinase kinase kinase kinase 3 (Homo sapiens) (UniProt Q8IVH8); conditions: Compound concentration 100.0 nM
[6] = biological target: Dual specificity protein kinase CLK1 (Homo sapiens) (UniProt P49759); conditions: Compound concentration 100.0 nM
[7] = system: Mast/stem cell growth factor receptor Kit (Homo sapiens), P10721 [V559D]; conditions: Compound concentration 100.0 nM
[8] = biological target: RAC-alpha serine/threonine-protein kinase (Homo sapiens) (UniProt P31749); conditions: Compound concentration 100.0 nM
[9] = biological target: Ribosomal protein S6 kinase alpha-5 (Homo sapiens) (UniProt O75582); conditions: Compound concentration 100.0 nM
[10] = biological target: Mitogen-activated protein kinase 1 (Homo sapiens) (UniProt P28482); conditions: Compound concentration 100.0 nM
[11] = biological target: Sigma non-opioid intracellular receptor 1 (Homo sapiens) (UniProt Q99720); conditions: Compound concentration 10.0 uM
[12] = biological target: Mitogen-activated protein kinase kinase kinase kinase 1 (Homo sapiens) (UniProt Q92918); conditions: Compound concentration 100.0 nM
[13] = biological target: T1, Serine/threonine-protein kinase Nek1 (Homo sapiens) (UniProt Q96PY6); conditions: Compound concentration 100.0 nM
T1 sequence (whole entry): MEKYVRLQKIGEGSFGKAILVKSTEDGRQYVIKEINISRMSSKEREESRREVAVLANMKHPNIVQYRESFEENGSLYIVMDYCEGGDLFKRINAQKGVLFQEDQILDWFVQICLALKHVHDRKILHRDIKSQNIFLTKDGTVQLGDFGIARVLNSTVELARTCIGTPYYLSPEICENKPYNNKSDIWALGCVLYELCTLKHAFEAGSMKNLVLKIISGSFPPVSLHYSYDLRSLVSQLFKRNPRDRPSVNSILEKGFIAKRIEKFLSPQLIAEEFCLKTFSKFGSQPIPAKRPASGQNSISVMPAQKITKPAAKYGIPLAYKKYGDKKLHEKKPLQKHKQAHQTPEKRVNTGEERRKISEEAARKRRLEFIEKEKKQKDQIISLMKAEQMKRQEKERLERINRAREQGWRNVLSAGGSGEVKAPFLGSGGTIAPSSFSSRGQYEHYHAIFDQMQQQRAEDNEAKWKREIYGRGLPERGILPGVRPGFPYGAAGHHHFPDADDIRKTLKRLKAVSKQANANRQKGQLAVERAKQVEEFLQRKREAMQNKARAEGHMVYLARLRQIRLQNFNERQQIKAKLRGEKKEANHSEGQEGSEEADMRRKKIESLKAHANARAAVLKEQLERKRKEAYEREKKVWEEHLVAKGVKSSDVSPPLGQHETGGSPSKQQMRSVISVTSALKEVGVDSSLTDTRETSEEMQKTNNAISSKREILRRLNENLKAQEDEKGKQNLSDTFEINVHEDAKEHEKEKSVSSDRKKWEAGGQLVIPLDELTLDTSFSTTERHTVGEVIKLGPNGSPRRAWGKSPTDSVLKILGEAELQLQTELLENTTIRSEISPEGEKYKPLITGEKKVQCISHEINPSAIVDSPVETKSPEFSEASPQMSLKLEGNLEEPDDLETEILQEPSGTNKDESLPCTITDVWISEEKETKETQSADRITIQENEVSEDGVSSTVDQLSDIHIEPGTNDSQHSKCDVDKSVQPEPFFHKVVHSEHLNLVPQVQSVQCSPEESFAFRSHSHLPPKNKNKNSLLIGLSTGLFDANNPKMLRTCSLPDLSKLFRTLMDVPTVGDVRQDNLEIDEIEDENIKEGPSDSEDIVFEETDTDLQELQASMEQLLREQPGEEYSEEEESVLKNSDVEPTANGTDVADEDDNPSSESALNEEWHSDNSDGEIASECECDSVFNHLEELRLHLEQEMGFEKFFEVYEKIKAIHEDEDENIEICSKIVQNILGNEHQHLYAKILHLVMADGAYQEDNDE

[14] = biological target: Cyclin-dependent kinase 15 (Homo sapiens) (UniProt Q96Q40); conditions: Compound concentration 100.0 nM
[15] = biological target: Serine/threonine-protein kinase SIK2 (Homo sapiens) (UniProt Q9H0K1); conditions: Compound concentration 100.0 nM
[16] = biological target: T2, Protein kinase C epsilon type (Homo sapiens) (UniProt Q02156); conditions: Compound concentration 100.0 nM
T2 sequence (whole entry): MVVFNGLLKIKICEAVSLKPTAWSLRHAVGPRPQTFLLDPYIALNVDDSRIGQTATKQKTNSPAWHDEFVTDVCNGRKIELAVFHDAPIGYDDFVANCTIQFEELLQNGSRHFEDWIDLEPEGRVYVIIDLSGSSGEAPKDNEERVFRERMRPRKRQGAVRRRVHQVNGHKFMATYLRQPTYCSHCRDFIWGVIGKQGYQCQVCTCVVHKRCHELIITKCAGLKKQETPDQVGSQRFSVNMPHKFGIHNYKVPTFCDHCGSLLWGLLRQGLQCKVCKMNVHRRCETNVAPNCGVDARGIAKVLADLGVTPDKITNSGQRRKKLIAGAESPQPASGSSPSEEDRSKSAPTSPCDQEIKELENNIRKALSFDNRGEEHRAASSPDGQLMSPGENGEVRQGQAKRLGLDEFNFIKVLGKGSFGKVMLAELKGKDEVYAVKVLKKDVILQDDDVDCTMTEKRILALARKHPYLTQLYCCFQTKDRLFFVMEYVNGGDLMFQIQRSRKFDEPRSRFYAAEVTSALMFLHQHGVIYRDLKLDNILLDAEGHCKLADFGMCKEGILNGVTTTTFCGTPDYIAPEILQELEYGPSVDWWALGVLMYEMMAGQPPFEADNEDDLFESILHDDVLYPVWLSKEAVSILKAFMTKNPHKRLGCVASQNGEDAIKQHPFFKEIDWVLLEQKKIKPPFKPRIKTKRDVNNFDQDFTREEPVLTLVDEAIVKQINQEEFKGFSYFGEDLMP

[17] = system: Mast/stem cell growth factor receptor Kit (Homo sapiens), P10721 [A829P]; conditions: Compound concentration 100.0 nM
[18] = biological target: Testis-specific serine/threonine-protein kinase 1 (Homo sapiens) (UniProt Q9BXA7); conditions: Compound concentration 100.0 nM

Receptor-type tyrosine-protein kinase FLT3 (Homo sapiens), P36888 [UNDEFINED MUTATION], sequence (P36888 whole entry, looked up, change not shown): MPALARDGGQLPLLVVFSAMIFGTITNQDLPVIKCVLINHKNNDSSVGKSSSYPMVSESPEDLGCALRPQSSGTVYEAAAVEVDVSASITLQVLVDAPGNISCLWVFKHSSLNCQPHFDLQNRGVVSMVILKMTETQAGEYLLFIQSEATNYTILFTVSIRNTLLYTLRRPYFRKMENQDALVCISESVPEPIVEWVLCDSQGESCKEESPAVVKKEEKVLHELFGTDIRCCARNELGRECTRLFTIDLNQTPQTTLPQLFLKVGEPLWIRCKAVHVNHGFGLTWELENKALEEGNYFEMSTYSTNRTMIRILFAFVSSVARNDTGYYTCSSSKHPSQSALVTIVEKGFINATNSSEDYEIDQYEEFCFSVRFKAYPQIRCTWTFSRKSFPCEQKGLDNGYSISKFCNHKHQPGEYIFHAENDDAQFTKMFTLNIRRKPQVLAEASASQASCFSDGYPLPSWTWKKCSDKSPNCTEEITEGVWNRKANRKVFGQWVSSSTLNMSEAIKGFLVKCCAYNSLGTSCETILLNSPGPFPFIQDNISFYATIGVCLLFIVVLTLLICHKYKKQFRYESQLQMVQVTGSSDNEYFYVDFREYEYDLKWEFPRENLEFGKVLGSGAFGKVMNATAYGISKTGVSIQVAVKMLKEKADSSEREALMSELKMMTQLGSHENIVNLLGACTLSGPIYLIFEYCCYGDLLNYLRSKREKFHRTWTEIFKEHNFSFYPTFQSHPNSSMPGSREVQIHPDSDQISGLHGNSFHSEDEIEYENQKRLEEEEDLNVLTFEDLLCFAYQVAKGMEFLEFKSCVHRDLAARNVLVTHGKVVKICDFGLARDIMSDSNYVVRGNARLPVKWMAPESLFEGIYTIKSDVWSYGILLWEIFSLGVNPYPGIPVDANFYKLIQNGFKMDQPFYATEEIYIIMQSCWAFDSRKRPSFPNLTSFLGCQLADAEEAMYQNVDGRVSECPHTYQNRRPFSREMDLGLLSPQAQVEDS
Mast/stem cell growth factor receptor Kit (Homo sapiens), P10721 [V559D], sequence (P10721 whole entry V559D): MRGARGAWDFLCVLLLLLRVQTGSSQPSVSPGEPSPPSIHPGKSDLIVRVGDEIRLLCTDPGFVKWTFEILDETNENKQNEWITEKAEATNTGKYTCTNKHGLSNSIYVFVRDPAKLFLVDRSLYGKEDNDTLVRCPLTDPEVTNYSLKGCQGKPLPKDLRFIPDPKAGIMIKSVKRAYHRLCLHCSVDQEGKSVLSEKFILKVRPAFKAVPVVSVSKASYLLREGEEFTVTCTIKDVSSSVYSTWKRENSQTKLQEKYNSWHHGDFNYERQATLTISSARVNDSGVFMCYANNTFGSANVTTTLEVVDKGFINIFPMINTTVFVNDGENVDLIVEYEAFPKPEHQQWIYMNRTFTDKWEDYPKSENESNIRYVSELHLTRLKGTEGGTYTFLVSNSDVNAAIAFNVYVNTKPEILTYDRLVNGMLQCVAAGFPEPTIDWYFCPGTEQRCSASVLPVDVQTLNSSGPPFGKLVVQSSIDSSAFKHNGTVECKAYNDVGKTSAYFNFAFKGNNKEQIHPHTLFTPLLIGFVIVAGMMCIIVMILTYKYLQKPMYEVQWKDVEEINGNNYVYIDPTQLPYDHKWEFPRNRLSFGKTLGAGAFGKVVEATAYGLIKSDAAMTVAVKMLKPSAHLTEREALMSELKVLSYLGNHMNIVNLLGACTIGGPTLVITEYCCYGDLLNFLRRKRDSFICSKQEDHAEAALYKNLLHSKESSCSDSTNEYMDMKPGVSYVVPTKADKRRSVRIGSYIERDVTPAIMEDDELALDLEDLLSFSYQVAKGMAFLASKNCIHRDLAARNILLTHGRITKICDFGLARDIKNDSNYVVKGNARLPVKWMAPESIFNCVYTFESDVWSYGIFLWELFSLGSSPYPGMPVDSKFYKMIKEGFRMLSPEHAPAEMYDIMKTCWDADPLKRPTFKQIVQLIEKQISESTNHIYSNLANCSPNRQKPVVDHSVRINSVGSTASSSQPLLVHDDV
RAC-alpha serine/threonine-protein kinase (Homo sapiens), sequence (P31749 whole entry): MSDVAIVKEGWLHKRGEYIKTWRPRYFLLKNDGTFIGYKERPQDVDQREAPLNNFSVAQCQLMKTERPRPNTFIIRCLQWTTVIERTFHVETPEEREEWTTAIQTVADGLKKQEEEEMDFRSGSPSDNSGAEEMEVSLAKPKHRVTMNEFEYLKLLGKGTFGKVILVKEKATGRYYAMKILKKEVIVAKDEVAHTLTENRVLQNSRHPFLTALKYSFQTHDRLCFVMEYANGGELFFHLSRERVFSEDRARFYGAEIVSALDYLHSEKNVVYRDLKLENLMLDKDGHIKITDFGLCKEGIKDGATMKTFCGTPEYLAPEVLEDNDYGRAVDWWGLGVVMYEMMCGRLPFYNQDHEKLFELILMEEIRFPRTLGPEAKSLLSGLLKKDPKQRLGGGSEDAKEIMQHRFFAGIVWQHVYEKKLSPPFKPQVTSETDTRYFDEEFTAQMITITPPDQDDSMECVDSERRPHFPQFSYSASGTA
Dual specificity protein kinase CLK1 (Homo sapiens), sequence (P49759 whole entry, looked up): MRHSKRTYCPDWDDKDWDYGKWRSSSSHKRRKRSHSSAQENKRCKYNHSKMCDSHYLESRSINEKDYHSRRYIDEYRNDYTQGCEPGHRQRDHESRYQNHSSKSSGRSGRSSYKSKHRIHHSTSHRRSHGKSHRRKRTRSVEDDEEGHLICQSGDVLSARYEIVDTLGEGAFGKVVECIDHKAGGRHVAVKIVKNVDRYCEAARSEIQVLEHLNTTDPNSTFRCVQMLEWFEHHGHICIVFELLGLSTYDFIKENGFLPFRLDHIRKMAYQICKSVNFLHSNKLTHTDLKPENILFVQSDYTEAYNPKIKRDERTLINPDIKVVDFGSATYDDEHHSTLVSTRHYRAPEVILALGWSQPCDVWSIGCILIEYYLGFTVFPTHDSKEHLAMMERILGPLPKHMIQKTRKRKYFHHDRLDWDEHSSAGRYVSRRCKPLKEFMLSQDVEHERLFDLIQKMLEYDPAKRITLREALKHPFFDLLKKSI
Mast/stem cell growth factor receptor Kit (Homo sapiens), P10721 [A829P], sequence (P10721 whole entry A829P): as the sequence (P10721 whole entry V559D) above, with D559V, A829P counted along it
Ribosomal protein S6 kinase alpha-5 (Homo sapiens), sequence (O75582 whole entry, looked up): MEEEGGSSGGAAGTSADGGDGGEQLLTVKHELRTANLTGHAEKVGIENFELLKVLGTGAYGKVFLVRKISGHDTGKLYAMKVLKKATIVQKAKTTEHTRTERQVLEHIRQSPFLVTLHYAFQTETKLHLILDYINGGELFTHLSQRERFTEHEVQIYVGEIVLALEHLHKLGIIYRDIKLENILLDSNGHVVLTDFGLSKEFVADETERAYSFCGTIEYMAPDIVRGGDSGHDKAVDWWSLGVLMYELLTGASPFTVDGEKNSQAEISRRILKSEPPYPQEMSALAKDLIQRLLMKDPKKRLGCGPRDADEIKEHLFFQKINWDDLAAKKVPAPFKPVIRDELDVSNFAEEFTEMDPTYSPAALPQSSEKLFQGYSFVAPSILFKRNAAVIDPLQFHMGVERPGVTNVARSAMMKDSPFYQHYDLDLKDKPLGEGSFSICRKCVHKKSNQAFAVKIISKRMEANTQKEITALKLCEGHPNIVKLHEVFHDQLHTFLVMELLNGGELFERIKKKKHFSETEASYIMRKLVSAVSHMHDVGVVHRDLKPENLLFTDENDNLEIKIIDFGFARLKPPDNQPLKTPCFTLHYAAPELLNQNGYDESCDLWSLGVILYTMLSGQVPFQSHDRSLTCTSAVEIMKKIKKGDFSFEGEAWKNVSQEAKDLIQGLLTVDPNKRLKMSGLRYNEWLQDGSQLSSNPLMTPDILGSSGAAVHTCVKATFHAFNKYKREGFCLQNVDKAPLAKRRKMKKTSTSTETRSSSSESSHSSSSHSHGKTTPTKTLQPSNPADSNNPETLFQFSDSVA
Sigma non-opioid intracellular receptor 1 (Homo sapiens), sequence (Q99720 whole entry): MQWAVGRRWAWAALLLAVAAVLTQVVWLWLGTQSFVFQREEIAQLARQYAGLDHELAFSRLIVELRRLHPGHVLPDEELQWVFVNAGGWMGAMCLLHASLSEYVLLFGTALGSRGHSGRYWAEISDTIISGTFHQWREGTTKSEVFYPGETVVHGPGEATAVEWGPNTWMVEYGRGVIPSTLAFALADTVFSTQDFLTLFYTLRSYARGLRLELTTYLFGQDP

CCOC(=O)c1cc2cc(-c3cc(C(=O)NCc4ccc(C(=O)O)cc4)nn3C)ccc2[nH]1 [BI 4394]
inactive: residual activity [1] 87% | residual activity [2] 100% | residual activity [3] 88% | residual activity [4] 76% | residual activity [5] 89% | residual activity [6] 100% | residual activity [7] 100% | residual activity [8] 100% | residual activity [9] 91% | residual activity [10] 99% | inhibition [11] 14.6% | residual activity [12] 100% | residual activity [13] 100% | residual activity [14] 93% | residual activity [15] 100% | residual activity [16] 90% | residual activity [17] 95% | residual activity [18] 100%

Cn1nc(C(=O)NCc2ccc(C(=O)O)cc2)cc1-c1ccc2[nH]ccc2c1 [BI 4395]
inactive: residual activity [1] 99% | residual activity [2] 78% | residual activity [3] 100% | residual activity [4] 93% | residual activity [5] 97% | residual activity [6] 80% | residual activity [7] 90% | residual activity [8] 100% | residual activity [9] 76% | residual activity [10] 94% | inhibition [11] 1.99% | residual activity [12] 97% | residual activity [13] 100% | residual activity [14] 95% | residual activity [15] 90% | residual activity [16] 64% | residual activity [17] 72% | residual activity [18] 100%
